From patent publication US11472798B2 (Mission Therapeutics Limited, priority 2014, dated 2022)

molecular target: T1, UCHL1 (Homo sapiens, UniProt P09936); experiment: UCHL1 biochemical IC50 assay (fluorescence polarisation); details: 30 min enzyme/compound pre-incubation at room temp, read after 2 hr incubation, read-out: Activity range (UCHL1 biochemical IC50 assay)
T1 construct: made in house; host or cells: HEK293T
T1 sequence (P09936 1-223): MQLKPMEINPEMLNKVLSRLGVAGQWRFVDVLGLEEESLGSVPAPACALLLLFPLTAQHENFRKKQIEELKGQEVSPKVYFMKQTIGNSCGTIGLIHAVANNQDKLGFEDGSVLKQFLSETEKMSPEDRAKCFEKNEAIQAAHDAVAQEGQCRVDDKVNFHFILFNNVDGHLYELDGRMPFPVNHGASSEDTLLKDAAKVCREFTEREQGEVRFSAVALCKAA
In short: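 FLAG-UCHL1 purified from transfected HEK293T cells was preincubated 30 min at room temperature with compound (8 points, 100–0.03 μM final) in Tris pH 7.5 buffer with Tween 20, BSA and beta-mercaptoethanol. Reaction started with 50 nM TAMRA-peptide–ubiquitin isopeptide substrate; fluorescence polarisation (ex 540/em 590 nm) read at once and after 2 h.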

Row | IC50 | SMILES
1 | < 1000 nM | N#CN1CC[C@H](C(=O)Nc2cc(-c3cn4ccnc4cn3)ccn2)C1 [Example 254, (S)-1-cyano-N-(4-(imidazo[1,2-a]pyrazin-6-yl)pyridin-2-yl)pyrrolidine-3-carboxamide]
2 | < 1000 nM | N#CN1CC[C@H](C(=O)Nc2ncc(N3CCCCC3)s2)C1 [Example 96, (S)-1-cyano-N-(5-(piperidin-1-yl)thiazol-2-yl)pyrrolidine-3-carboxamide]
3 | 1000 to 10000 nM | Cn1cc(-c2ccnc(NC(=O)[C@H]3CCN(C#N)C3)c2)cn1 [Example 211, (S)-1-cyano-N-(4-(1-methyl-1H-pyrazol-4-yl)pyridin-2-yl)pyrrolidine-3-carboxamide]
4 | < 1000 nM | Cn1ccc(C(=O)N2CCc3nc(NC(=O)[C@H]4CCN(C#N)C4)sc3C2)n1 [Example 194, (S)-1-cyano-N-(5-(1-methyl-1H-pyrazole-3-carbonyl)-4,5,6,7-tetrahydrothiazolo[5,4-c]pyridin-2-yl)pyrrolidine-3-carboxamide]
5 | 1000 to 10000 nM | N#CN1CC[C@@H](C(=O)Nc2ncc(N3CCOCC3)s2)C1 [Example 102, (R)-1-cyano-N-(5-morpholinothiazol-2-yl)pyrrolidine-3-carboxamide]
6 | 1000 to 10000 nM | Cc1noc(C)c1Cn1cnc(NC(=O)[C@H]2CCN(C#N)C2)c1 [Example 171, (S)-1-cyano-N-(1-((3,5-dimethylisoxazol-4-yl)methyl)-1H-imidazol-4-yl)pyrrolidine-3-carboxamide]
7 | < 1000 nM | Cn1cccc(C(=O)N2CCc3nc(NC(=O)[C@H]4CCN(C#N)C4)sc3C2)c1=O [Example 195, (S)-1-cyano-N-(5-(1-methyl-2-oxo-1,2-dihydropyridine-3-carbonyl)-4,5,6,7-tetrahydrothiazolo[5,4-c]pyridin-2-yl)pyrrolidine-3-carboxamide]
8 | 1000 to 10000 nM | CNc1cc(-c2ccnc(NC(=O)[C@H]3CCN(C#N)C3)c2)ccn1 [Example 259, (S)-1-cyano-N-(2′-(methylamino)-[4,4′-bipyridin]-2-yl)pyrrolidine-3-carboxamide]
9 | < 1000 nM | N#CN1CC[C@H](C(=O)Nc2ncc(-c3ccc(Cl)c(C(N)=O)c3)s2)C1 [Example 237, (S)-N-(5-(3-carbamoyl-4-chlorophenyl)thiazol-2-yl)-1-cyanopyrrolidine-3-carboxamide]
10 | 1000 to 10000 nM | N#CN1CC[C@H](C(=O)Nc2nc3ccc(-n4nccn4)cc3s2)C1 [Example 63, (S)-N-(6-(2H-1,2,3-triazol-2-yl)benzo[d]thiazol-2-yl)-1-cyano-pyrrolidine-3-carboxamide]
11 | < 1000 nM | N#Cc1ccc(-n2cnc(NC(=O)[C@H]3CCN(C#N)C3)c2)cc1O[C@H]1CCOC1 [Example 247, (S)-1-cyano-N-(1-(4-cyano-3-(((S)-tetrahydrofuran-3-yl)oxy)phenyl)-1H-imidazol-4-yl)pyrrolidine-3-carboxamide]
12 | < 1000 nM | Cc1cc(-n2cnc(NC(=O)[C@H]3CCN(C#N)C3)c2)ccc1C#N [Example 308, (S)-1-cyano-N--(1-(4-cyano-3-methylphenyl)-1H-imidazol-4-yl)pyrrolidine-3-carboxamide]
13 | < 1000 nM | C#CCNC(=O)c1cc(-c2cnc(NC(=O)[C@H]3CCN(C#N)C3)s2)ccc1Cl [Example 239, (S)-N-(5-(4-chloro-3-(prop-2-yn-1-ylcarbarmoyl)phenyl)thiazol-2-yl)-1-cyanopyrrolidine-3-carboxamide]
14 | < 1000 nM | N#CN1CC[C@H](C(=O)Nc2cn(-c3ccc(C(F)(F)F)cc3)cn2)C1 [Example 153, (S)-1-cyano-N-(1-(4-(trifluoromethyl)phenyl)-1H-imidazol-4-yl)pyrrolidine-3-carboxamide]
15 | < 1000 nM | CNC(=O)c1cccc(-c2cnc(NC(=O)[C@H]3CCN(C#N)C3)s2)c1 [Example 233, (S)-1-cyano-N-(5-(3-(methylcarbamoyl)phenyl)thiazol-2-yl)pyrrolidine-3-carboxamide]
16 | < 1000 nM | N#CN1CC[C@H](C(=O)Nc2cc3n(n2)CCN(Cc2ccccc2)C3)C1 [Example 242, (S)—N-(5-benzyl-4,5,6,7-tetrahydropyrazolo[1,5-a]pyrazin-2-yl)-1-cyanopyrrolidine-3-carboxamide]
17 | < 1000 nM | CCNC(=O)c1cccc(-c2cnc(NC(=O)[C@H]3CCN(C#N)C3)s2)n1 [Example 225, (S)-6-(2-(1-cyanopyrrolidine-3-carboxamido)thiazol-5-yl)-N-ethylpicolinamide]
18 | 1000 to 10000 nM | CC(C)(C)c1cc(NC(=O)C2CCN(C#N)C2)[nH]n1 (stereo not drawn) [Example 17, N-(3-(tert-butyl)-1H-pyrazol-5-yl)-1-cyano-pyrrolidine-3-carboxamide]
19 | 1000 to 10000 nM | N#CN1CCC(C(=O)Nc2ccc(-c3ccccn3)cn2)C1 (stereo not drawn) [Example 32, N-([2,3′-bipyridin]-6′-yl)-1-cyano-pyrrolidine-3-carboxamide]
20 | 1000 to 10000 nM | COC1CCN(c2ccc(NC(=O)[C@H]3CCN(C#N)C3)nc2)CC1 [Example 61, (S)-1-cyano-N-(5-(4-methoxy-piperidin-1-yl)pyridin-2-yl)pyrrolidine-3-carboxamide]

Row | IC50 | SMILES
21 | 1000 to 10000 nM | Cc1ccc(-c2ccc(NC(=O)C3CCN(C#N)C3)nc2)cc1 (stereo not drawn) [Example 134, 1-cyano-N-(5-(p-tolyl)pyridin-2-yl)pyrrolidine-3-carboxamide]
22 | 1000 to 10000 nM | N#CN1CC[C@H](C(=O)Nc2cc(-c3ccccc3)cnn2)C1 [Example 275, (S)-1-cyano-N-(5-phenylpyridazin-3-yl)pyrrolidine-3-carboxamide]
23 | 1000 to 10000 nM | COc1ccc2nc(NC(=O)C3CCN(C#N)C3)sc2c1 (stereo not drawn) [Example 21, 1-cyano-N-(6-methoxybenzo[d]thiazol-2-yl)pyrrolidine-3-carboxamide]
24 | < 1000 nM | C[C@@H]1CN(C#N)C[C@H]1C(=O)Nc1ncc(-c2ccccc2)s1 [Example 82, (3S,4S)-1-cyano-4-methyl-N-(5-phenylthiazol-2-yl)pyrrolidine-3-carboxamide]
25 | < 1000 nM | COc1cc(-n2cnc(NC(=O)[C@H]3CCN(C#N)C3)c2)ccc1C#N [Example 307, (S)-1-cyano-N-(1-(4-cyano-3-methoxyphenyl)-1H-imidazol-4-yl)pyrrolidine-3-carboxamide]
26 | 1000 to 10000 nM | CC1CN(Cc2cnc(NC(=O)[C@H]3CCN(C#N)C3)s2)CC(C)O1 (stereo partly drawn) [Example 142, (3S)-1-cyano-N-(5-((2,6-dimethylmorpholino)methyl)thiazol-2-yl)pyrrolidine-3-carboxamide]
27 | < 1000 nM | COCCn1cc(-c2ccc(-n3cnc(NC(=O)[C@H]4CCN(C#N)C4)c3)cc2)cn1 [Example 278, (S)-1-cyano-N-(1-(4-(1-(2-methoxyethyl)-1H-pyrazol-4-yl)phenyl)-1H-imidazol-4-yl)pyrrolidine-3-carboxamide]
28 | < 1000 nM | Cc1cccc2nc(NC(=O)[C@H]3CCN(C#N)C3)sc12 [Example 47, (S)-1-cyano-N-(7-methylbenzo[d]thiazol-2-yl)-pyrrolidine-3-carboxamide]
29 | < 1000 nM | N#CN1CC[C@H](C(=O)Nc2cc3cc(-c4cn[nH]c4C(F)(F)F)ccc3cn2)C1 [Example 289, (S)-1-cyano-N-(6-(5-(trifluoromethyl)-1H-pyrazol-4-yl)isoquinolin-3-yl)pyrrolidine-3-carboxamide]
30 | 1000 to 10000 nM | N#CN1CC[C@H](C(=O)Nc2cn(CC3CCOCC3)cn2)C1 [Example 165, (S)-1-cyano-N-(1-((tetrahydro-2H-pyran-4-yl)methyl)-1H-imidazol-4-yl)pyrrolidine-3-carboxamide]
31 | < 1000 nM | C[C@H]1[C@@H](C(=O)Nc2cn(-c3ccccc3)cn2)CCN1C#N [Example 74, (2S,3S)-1-cyano-2-methyl-N-(1-phenyl-1H-imidazol-4-yl)pyrrolidine-3-carboxamide]
32 | < 1000 nM | CC(c1ccccc1)N(C)S(=O)(=O)c1ccc(NC(=O)[C@H]2CCN(C#N)C2)nc1 (stereo partly drawn) [Example 208, (3S)-1-cyano-N-(5-(N-methyl-N-(1-phenylethyl)sulfamoyl)pyridin-2-yl)pyrrolidine-3-carboxamide]
33 | 1000 to 10000 nM | N#CN1CC[C@H](C(=O)Nc2ccc(-c3ccccc3)cn2)C1 [Example 54, (S)-1-cyano-N-(5-phenylpyridin-2-yl)pyrrolidine-3-carboxamide]
34 | 1000 to 10000 nM | N#CN1CC[C@H](C(=O)Nc2nc3ccc(-c4cn[nH]c4)cc3s2)C1 [Example 292, (S)-N-(6-(1H-pyrazol-4-yl)benzo[d]thiazol-2-yl)-1-cyanopyrrolidine-3-carboxamide]
35 | < 1000 nM | COCCn1ncc2cc(-c3cnc(NC(=O)[C@H]4CCN(C#N)C4)s3)ccc21 [Example 227, (S)-1-cyano-N-(5-(1-(2-methoxyethyl)-1H-indazol-5-yl)thiazol-2-yl)pyrrolidine-3-carboxamide]
36 | < 1000 nM | N#CN1CC[C@H](C(=O)Nc2ncc(-c3cccc4[nH]ncc34)s2)C1 [Example 230, (S)—N-(5-(1H-indazol-4-yl)thiazol-2-yl)-1-cyanopyrrolidine-3-carboxamide]
37 | 10000 to 30000 nM | N#CN1CCC(C(=O)Nc2nc(-c3ccccc3)cs2)C1 (stereo not drawn) [Example 9, 1-cyano-N-(4-phenylthiazol-2-yl)pyrrolidine-3-carboxamide]
38 | < 1000 nM | Cc1noc(C)c1-c1ccn2cc(NC(=O)[C@H]3CCN(C#N)C3)nc2c1 [Example 127, (S)-1-cyano-N-(7-(3,5-dimethylisoxazol-4-yl)imidazo[1,2-a]pyridin-2-yl)pyrrolidine-3-carboxamide]
39 | < 1000 nM | CN1CCN(c2cnc(NC(=O)C3CCN(C#N)C3)s2)CC1 (stereo not drawn) [Example 92, 1-cyano-N-(5-(4-methylpiperazin-1-yl)thiazol-2-yl)pyrrolidine-3-carboxamide]
